± gives the standard deviation of the averaged measurements.
How the values were obtained:
Settings in all cases: treatment time: 5 days
H1792 = test system: H1792
Protocol: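 CCK-8 viability of KRAS G12C-mutant cancer cell lines transfected with control, YAP/TAZ or TEAD1-4 siRNAs and treated with KRAS G12C inhibitors for 5 days; IC50 fitted in Prism after normalising absorbance at 450 nm to vehicle control.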

SW1573 = test: relative viability (fraction of vehicle control); higher = more viable / less inhibited
Protocol: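 CCK-8 viability of SW1573 cells transfected with control, YAP/TAZ or TEAD1-4 siRNAs and treated with KRAS G12C inhibitors for 5 days. Values are normalised to vehicle control.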

H1373 = test: as above
Protocol: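 CCK-8 viability of H1373 cells with empty vector or constitutively active YAP S127A, treated with KRAS G12C inhibitors for 5 days, normalised to vehicle control.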

C=CC(=O)N1CCN(c2ncnc3c(F)c(-c4c(O)cccc4F)c(Cl)cc23)CC1 [ARS1620]
Settings	IC50 (cell viability, 5 days) [nM]	relative viability
H1373, log10 concentration (uM): 0, ectopic expression: YAP S127A	–	0.7325 ± 0.0061
H1373, log10 concentration (uM): 0, ectopic expression: empty vector (YAP experiment)	–	0.658 ± 0.035
H1373, log10 concentration (uM): 0.39794, ectopic expression: YAP S127A	–	0.627 ± 0.046
H1373, log10 concentration (uM): 0.39794, ectopic expression: empty vector (YAP experiment)	–	0.504 ± 0.023
H1373, log10 concentration (uM): 0.69897, ectopic expression: YAP S127A	–	0.564 ± 0.049
H1373, log10 concentration (uM): 0.69897, ectopic expression: empty vector (YAP experiment)	–	0.413 ± 0.07
H1373, log10 concentration (uM): 1, ectopic expression: YAP S127A	–	0.545 ± 0.062
H1373, log10 concentration (uM): 1, ectopic expression: empty vector (YAP experiment)	–	0.329 ± 0.021
H1373, log10 concentration (uM): 1.301029996, ectopic expression: YAP S127A	–	0.413 ± 0.012
H1373, log10 concentration (uM): 1.301029996, ectopic expression: empty vector (YAP experiment)	–	0.26 ± 0.015
H1373, log10 concentration (uM): -0.30103, ectopic expression: YAP S127A	–	0.811 ± 0.049
H1373, log10 concentration (uM): -0.30103, ectopic expression: empty vector (YAP experiment)	–	0.862 ± 0.041
H1373, log10 concentration (uM): -0.60206, ectopic expression: YAP S127A	–	0.866 ± 0.036
H1373, log10 concentration (uM): -0.60206, ectopic expression: empty vector (YAP experiment)	–	0.847 ± 0.13
H1373, log10 concentration (uM): -1, ectopic expression: YAP S127A	–	0.933 ± 0.051
H1373, log10 concentration (uM): -1, ectopic expression: empty vector (YAP experiment)	–	0.917 ± 0.077
H1792, siRNA knockdown (Con = control): Con	1960	–
H1792, siRNA knockdown (Con = control): YAP_WWTR1_si1	590	–
H1792, siRNA knockdown (Con = control): YAP_WWTR1_si2	472	–
SW1573, log10 concentration (uM): 0, siRNA knockdown: TEAD1-4 siRNA 1	–	0.394 ± 0.013
SW1573, log10 concentration (uM): 0, siRNA knockdown: TEAD1-4 siRNA 2	–	0.45 ± 0.089
SW1573, log10 concentration (uM): 0, siRNA knockdown: YAP/TAZ siRNA 1	–	0.174 ± 0.025
SW1573, log10 concentration (uM): 0, siRNA knockdown: YAP/TAZ siRNA 2	–	0.156 ± 0.018
SW1573, log10 concentration (uM): 0, siRNA knockdown: negative control siRNA	–	0.929 ± 0.035
SW1573, log10 concentration (uM): 0.39794, siRNA knockdown: TEAD1-4 siRNA 1	–	0.297 ± 0.011
SW1573, log10 concentration (uM): 0.39794, siRNA knockdown: TEAD1-4 siRNA 2	–	0.376 ± 0.026
SW1573, log10 concentration (uM): 0.39794, siRNA knockdown: YAP/TAZ siRNA 1	–	0.172 ± 0.013
SW1573, log10 concentration (uM): 0.39794, siRNA knockdown: YAP/TAZ siRNA 2	–	0.15 ± 0.012
SW1573, log10 concentration (uM): 0.39794, siRNA knockdown: negative control siRNA	–	0.952 ± 0.036
SW1573, log10 concentration (uM): 0.69897, siRNA knockdown: TEAD1-4 siRNA 1	–	0.273 ± 0.021
SW1573, log10 concentration (uM): 0.69897, siRNA knockdown: TEAD1-4 siRNA 2	–	0.381 ± 0.067
SW1573, log10 concentration (uM): 0.69897, siRNA knockdown: YAP/TAZ siRNA 1	–	0.186 ± 0.025
SW1573, log10 concentration (uM): 0.69897, siRNA knockdown: YAP/TAZ siRNA 2	–	0.175 ± 0.012
SW1573, log10 concentration (uM): 0.69897, siRNA knockdown: negative control siRNA	–	0.952 ± 0.052
SW1573, log10 concentration (uM): 1, siRNA knockdown: TEAD1-4 siRNA 1	–	0.189 ± 0.011
SW1573, log10 concentration (uM): 1, siRNA knockdown: TEAD1-4 siRNA 2	–	0.351 ± 0.023
SW1573, log10 concentration (uM): 1, siRNA knockdown: YAP/TAZ siRNA 1	–	0.2 ± 0.013
SW1573, log10 concentration (uM): 1, siRNA knockdown: YAP/TAZ siRNA 2	–	0.182 ± 0.006
SW1573, log10 concentration (uM): 1, siRNA knockdown: negative control siRNA	–	0.94 ± 0.054
SW1573, log10 concentration (uM): 1.301029996, siRNA knockdown: TEAD1-4 siRNA 1	–	0.0763 ± 0.0018
SW1573, log10 concentration (uM): 1.301029996, siRNA knockdown: TEAD1-4 siRNA 2	–	0.233 ± 0.023
SW1573, log10 concentration (uM): 1.301029996, siRNA knockdown: YAP/TAZ siRNA 1	–	0.136 ± 0.0089
SW1573, log10 concentration (uM): 1.301029996, siRNA knockdown: YAP/TAZ siRNA 2	–	0.139 ± 0.003
SW1573, log10 concentration (uM): 1.301029996, siRNA knockdown: negative control siRNA	–	0.464 ± 0.11
SW1573, log10 concentration (uM): -0.30103, siRNA knockdown: TEAD1-4 siRNA 1	–	0.413 ± 0.051
SW1573, log10 concentration (uM): -0.30103, siRNA knockdown: TEAD1-4 siRNA 2	–	0.47 ± 0.062
SW1573, log10 concentration (uM): -0.30103, siRNA knockdown: YAP/TAZ siRNA 1	–	0.236 ± 0.013
SW1573, log10 concentration (uM): -0.30103, siRNA knockdown: YAP/TAZ siRNA 2	–	0.209 ± 0.018
SW1573, log10 concentration (uM): -0.30103, siRNA knockdown: negative control siRNA	–	0.908 ± 0.02
SW1573, log10 concentration (uM): -0.60206, siRNA knockdown: TEAD1-4 siRNA 1	–	0.655 ± 0.054
SW1573, log10 concentration (uM): -0.60206, siRNA knockdown: TEAD1-4 siRNA 2	–	0.614 ± 0.015
SW1573, log10 concentration (uM): -0.60206, siRNA knockdown: YAP/TAZ siRNA 1	–	0.29 ± 0.028
SW1573, log10 concentration (uM): -0.60206, siRNA knockdown: YAP/TAZ siRNA 2	–	0.306 ± 0.013
SW1573, log10 concentration (uM): -0.60206, siRNA knockdown: negative control siRNA	–	0.964 ± 0.049
SW1573, log10 concentration (uM): -1, siRNA knockdown: TEAD1-4 siRNA 1	–	0.683 ± 0.081
SW1573, log10 concentration (uM): -1, siRNA knockdown: TEAD1-4 siRNA 2	–	0.614 ± 0.065
SW1573, log10 concentration (uM): -1, siRNA knockdown: YAP/TAZ siRNA 1	–	0.41 ± 0.029
SW1573, log10 concentration (uM): -1, siRNA knockdown: YAP/TAZ siRNA 2	–	0.417 ± 0.019
SW1573, log10 concentration (uM): -1, siRNA knockdown: negative control siRNA	–	0.976 ± 0.022
SW1573, log10 concentration (uM): -2, siRNA knockdown: TEAD1-4 siRNA 1	–	0.9354 ± 0.0084
SW1573, log10 concentration (uM): -2, siRNA knockdown: TEAD1-4 siRNA 2	–	1.01 ± 0.12
SW1573, log10 concentration (uM): -2, siRNA knockdown: YAP/TAZ siRNA 1	–	0.817 ± 0.014
SW1573, log10 concentration (uM): -2, siRNA knockdown: YAP/TAZ siRNA 2	–	0.82 ± 0.018
SW1573, log10 concentration (uM): -2, siRNA knockdown: negative control siRNA	–	1.02 ± 0.045

Reference: the supplement of paper PMC11665569
